From PubChem BioAssay (NCI) come the findings set out here.

SMILES strings stand for the structures. Where “and” joins values, the source holds several entries; their conditions need not be identical. Equal values may be shown once.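 Where inhibition never reached the appropriate level, the endpoint shown equals the highest concentration tested. Otherwise, values were interpolated linearly from a five-concentration, 48-hour dose response in 96-well plates. Abbreviation: GI50, concentration required for 50% inhibition of growth. TGI: concentration producing complete growth inhibition.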

The test system of the first assay is CCRF-CEM leukemia. Nature of the assay: NCI-60 cell line screen, 48 h.
Molecule `CCN(CC)c1c(C(=O)/C=C/c2ccc(OC)cc2)c(-c2ccccc2)nn(C)c1=O` registered a TGI of 45.6 µM.

As to `CN1C(=Nc2ccccc2)SC1=Nc1ccccc1`, the TGI is over 100 µM.

Molecule `Oc1ccccc1/C=C/c1csnn1` had a TGI of over 100 µM.

In the case of `CC(=O)CC(=O)OC1CC(C)CCC1C(C)C` (stereo not given), the TGI came to 44 µM.

`CP1(=O)CCCCC1` yielded a TGI of over 100 µM.

For the molecule `O=[N+]([O-])c1cc(C(F)(F)F)cc([N+](=O)[O-])c1CCl`, the TGI stood at 0.722 µM.

Consider `Nc1ccnc(=O)[nH]1`, for which the TGI was over 100 µM.

For `COC(=O)/C(C)=C(/CCC1(C)OCCO1)O[Si](C)(C)C`, the TGI is over 100 µM.

In turn, `CCOC(=O)N1CCN(C=S)CC1` returned a TGI of over 100 µM.

`CCc1cc(C(=O)OC)cn1C(=N)c1ccc(Cl)cc1` returned a TGI of over 100 µM.

For the molecule `Cc1cc(=O)n(-c2ccccc2C)c(C)n1`, the TGI is over 100 µM.

In the case of `Oc1c(C(Nc2cccc3cccnc23)c2ccccc2)ccc2cccnc12` (stereo not given), the TGI is 78.8 µM.

`COc1ccc(Br)c(N/N=C2\CCCNC2=O)c1` showed a TGI of over 100 µM.

`COc1cc2c(c(OC)c1OC)-c1ccc(SC)c(=O)cc1C(CO)C2` (stereo not given): the GI50 is under 0.01 µM and the TGI was found to be 2.27 µM.

As to `CCC[CH2][Sn]1([CH2]CCC)[O]C(=O)c2cccnc2[O]1`, the GI50 is 0.731 µM and the TGI is 3.08 µM.

`COC1CC(OS(=O)(=O)c2ccc([N+](=O)[O-])cc2)C(OC(=O)c2ccccc2)C(C)O1` (stereo not given) displayed a TGI of over 100 µM.

As for `CCOc1ccccc1N1C(=O)C(=O)C(c2nc3ccccc3o2)C(=O)C1=O`, the TGI was over 100 µM.

Regarding `C=C1C(=O)O[C@H]2[C@H]1CC/C(COC(=O)NCc1cn(C)c3ccccc13)=C\CC[C@@]1(C)O[C@@H]21`, the GI50 is 0.335 µM and the TGI was determined as 2.26 µM.

Take `CCS(CC)(CC)CC1CCCC2=CCC(P(=O)(c3ccccc3)c3ccccc3)CC21` (stereo not given): the TGI is 31 µM.

Regarding `COc1ccc2n[se]nc2c1`, the TGI was over 100 µM.

Molecule `Cn1cc(C(=O)NCCC(=N)N)cc1NC(=O)C1=[N+](C)C=C(NC(=O)c2cccc(C(=O)NC3=CC(C(=O)Nc4cc(C(=O)NCCC(=N)N)cn4C)=[N+](C)C3)c2)C1` showed a TGI of over 100 µM.

A further assay deals with HCT-15 colon. Nature of the assay: NCI-60 cell line screen, 48 h.
`CN1C(=Nc2ccccc2)SC1=Nc1ccccc1` displayed a TGI of over 100 µM.

`Oc1ccccc1/C=C/c1csnn1` gave a TGI of over 94.3 µM.

`CC(=O)CC(=O)OC1CC(C)CCC1C(C)C` (stereo not given) displayed a TGI of over 100 µM.

As to `CP1(=O)CCCCC1`, the TGI is over 100 µM.

In turn, `Cc1ccc(S(=O)(=O)OC2CSS(=O)CC2OS(=O)(=O)c2ccc(C)cc2)cc1` (stereo not given) had a TGI of 33.6 µM.

The molecule `Nc1ccnc(=O)[nH]1` registered a TGI of over 100 µM.

In turn, `COC(=O)/C(C)=C(/CCC1(C)OCCO1)O[Si](C)(C)C` registered a TGI of over 100 µM.

On to `COc1cc(C(=O)O[C@H](C(=O)NCCCCCNC(=O)[C@@H](OC(=O)c2cc(OC)cc3c(C)cccc23)[C@]2(C)CO2)[C@]2(C)CO2)c2cccc(C)c2c1`, for which the GI50 was 0.174 µM and the TGI was determined as 2.13 µM.

In turn, `CCOC(=O)N1CCN(C=S)CC1` had a TGI of over 100 µM.

Molecule `CCc1cc(C(=O)OC)cn1C(=N)c1ccc(Cl)cc1` yielded a TGI of over 100 µM.

Molecule `Cc1cc(=O)n(-c2ccccc2C)c(C)n1` yielded a TGI of over 100 µM.

The molecule `COc1ccc(Br)c(N/N=C2\CCCNC2=O)c1` returned a TGI of over 100 µM.

In the case of `COc1cc2c(c(OC)c1OC)-c1ccc(SC)c(=O)cc1C(CO)C2` (stereo not given), the GI50 is under 0.01 µM; the TGI is 0.723 µM and 1.3 µM.

Turning to `COc1cc([N+](=O)[O-])c(OC)cc1-c1nc2sc(Cl)cn2c1/C(N)=N/C(=N)N`, the GI50 is 65 µM and the TGI is over 100 µM.

As for `Cc1ccc2nc(NC(=O)C(=O)C(C#N)c3nc4ccccc4s3)sc2c1` (stereo not given), the TGI is over 100 µM.

The molecule `CC(C)C1CC[C@@H](C)C[C@@]1(O)CC(N)=O` (stereo not given in full) displayed a TGI of over 100 µM.

In the case of `COc1cnc2c(c1)C(=O)c1c-2n(CCCn2ccnc2)c(=O)c2cc(F)ccc12`, the GI50 was 0.155 µM and the TGI was 1.56 µM.

In the case of `O=C([CH-]C(=O)c1ccccc1)c1ccccc1.O=C([CH-]C(=O)c1ccccc1)c1ccccc1.[La+3].[OH-].[OH3+]`, the GI50 is 13 µM and the TGI came out at 48.1 µM.

In the case of `CN(CCCn1c2c(c3ccccc3c1=O)C(=O)c1ccccc1-2)CCCn1c2c(c3ccccc3c1=O)C(=O)c1ccccc1-2`, the GI50 was 0.229 µM and the TGI was found to be 2.62 µM.

As for `CCC[CH2][Sn]1([CH2]CCC)[O]C(=O)c2cccnc2[O]1`, the GI50 is 1.9 µM and the TGI is 3.66 µM.

In turn, `COC1CC(OS(=O)(=O)c2ccc([N+](=O)[O-])cc2)C(OC(=O)c2ccccc2)C(C)O1` (stereo not given) gave a TGI of over 100 µM.

In turn, `CCOc1ccccc1N1C(=O)C(=O)C(c2nc3ccccc3o2)C(=O)C1=O` showed a TGI of over 100 µM.

In the case of `C=C1C(=O)O[C@H]2[C@H]1CC/C(COC(=O)NCc1cn(C)c3ccccc13)=C\CC[C@@]1(C)O[C@@H]21`, the GI50 is 0.611 µM and the TGI is 2.17 µM.

As to `CCS(CC)(CC)CC1CCCC2=CCC(P(=O)(c3ccccc3)c3ccccc3)CC21` (stereo not given), the TGI came to 21.8 µM.

As to `COc1ccc2n[se]nc2c1`, the TGI was over 100 µM.

Take `Cn1cc(C(=O)NCCC(=N)N)cc1NC(=O)C1=[N+](C)C=C(NC(=O)c2cccc(C(=O)NC3=CC(C(=O)Nc4cc(C(=O)NCCC(=N)N)cn4C)=[N+](C)C3)c2)C1`: the TGI is over 100 µM.

The test system of another assay is HL-60(TB) leukemia. The experiment in a line: NCI-60 cell line screen, 48 h.
In the case of `CCN(CC)c1c(C(=O)/C=C/c2ccc(OC)cc2)c(-c2ccccc2)nn(C)c1=O`, the TGI came to 43.9 µM.

`CN1C(=Nc2ccccc2)SC1=Nc1ccccc1` returned a TGI of over 100 µM.

In turn, `Oc1ccccc1/C=C/c1csnn1` came in with a TGI of 99.7 µM.

The molecule `CC(=O)CC(=O)OC1CC(C)CCC1C(C)C` (stereo not given) displayed a TGI of 40.2 µM.

Molecule `CP1(=O)CCCCC1` registered a TGI of over 100 µM.

Molecule `Cc1ccc(S(=O)(=O)OC2CSS(=O)CC2OS(=O)(=O)c2ccc(C)cc2)cc1` (stereo not given) came in with a TGI of 28.3 µM.

`O=[N+]([O-])c1cc(C(F)(F)F)cc([N+](=O)[O-])c1CCl` yielded a TGI of 3.21 µM.
